Counter-ions that a name gives are not always drawn. Calls of active or inactive are those of the source.
Assays:
Paired box protein Pax-8 = Paired box protein Pax-8 (Homo sapiens, UniProt Q06710); assay: PAX8 transcriptional activity inhibition in RMG-I – RMG-I cells, luciferase, cherry-pick, dose response (AID 687027); type: functional, cell-based;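 note: luciferase reporter driven by Pax8 target thyroperoxidase promoter measured by SteadyGlo luminescence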
[1] = rise of 2N DNA cells, HeLa – IC50, dose response (AID 1117349); type: functional, cell-based
[2] = rise of 4N DNA cells, HeLa – IC50, dose response (AID 1117351); type: functional, cell-based
[3] = biological target: Glucose-6-phosphate 1-dehydrogenase (Homo sapiens, UniProt P11413); assay: inhibition of Homo sapiens G6PD, dose series – biochemical, fluorescence, selectivity assay for P. falciparum G6PD inhibitor project, dose response (AID 504792); type: functional
Glucose-6-phosphate 1-dehydrogenase, sequence (P11413 whole entry): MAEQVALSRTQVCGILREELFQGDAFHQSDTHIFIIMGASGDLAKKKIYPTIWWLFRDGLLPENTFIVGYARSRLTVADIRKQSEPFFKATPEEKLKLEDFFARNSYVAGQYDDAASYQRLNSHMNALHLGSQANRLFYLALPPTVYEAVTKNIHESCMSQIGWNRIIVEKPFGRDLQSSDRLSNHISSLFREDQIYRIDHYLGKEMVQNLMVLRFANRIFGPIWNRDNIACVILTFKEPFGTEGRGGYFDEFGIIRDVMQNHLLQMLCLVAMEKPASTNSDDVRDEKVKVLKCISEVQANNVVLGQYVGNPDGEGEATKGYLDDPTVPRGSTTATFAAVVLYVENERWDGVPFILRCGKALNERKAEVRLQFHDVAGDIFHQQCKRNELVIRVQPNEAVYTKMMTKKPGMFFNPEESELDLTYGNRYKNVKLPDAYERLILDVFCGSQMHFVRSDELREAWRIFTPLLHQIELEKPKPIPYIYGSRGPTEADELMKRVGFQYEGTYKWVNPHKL

Genome polyprotein = Genome polyprotein (dengue virus type 2, UniProt P29990); assay: flavivirus cap methylation enzyme inhibition – biochemical, confirmation dose response, primary screen (AID 588689); type: functional
Genome polyprotein, sequence (P29990 2492-3391 limits assumed): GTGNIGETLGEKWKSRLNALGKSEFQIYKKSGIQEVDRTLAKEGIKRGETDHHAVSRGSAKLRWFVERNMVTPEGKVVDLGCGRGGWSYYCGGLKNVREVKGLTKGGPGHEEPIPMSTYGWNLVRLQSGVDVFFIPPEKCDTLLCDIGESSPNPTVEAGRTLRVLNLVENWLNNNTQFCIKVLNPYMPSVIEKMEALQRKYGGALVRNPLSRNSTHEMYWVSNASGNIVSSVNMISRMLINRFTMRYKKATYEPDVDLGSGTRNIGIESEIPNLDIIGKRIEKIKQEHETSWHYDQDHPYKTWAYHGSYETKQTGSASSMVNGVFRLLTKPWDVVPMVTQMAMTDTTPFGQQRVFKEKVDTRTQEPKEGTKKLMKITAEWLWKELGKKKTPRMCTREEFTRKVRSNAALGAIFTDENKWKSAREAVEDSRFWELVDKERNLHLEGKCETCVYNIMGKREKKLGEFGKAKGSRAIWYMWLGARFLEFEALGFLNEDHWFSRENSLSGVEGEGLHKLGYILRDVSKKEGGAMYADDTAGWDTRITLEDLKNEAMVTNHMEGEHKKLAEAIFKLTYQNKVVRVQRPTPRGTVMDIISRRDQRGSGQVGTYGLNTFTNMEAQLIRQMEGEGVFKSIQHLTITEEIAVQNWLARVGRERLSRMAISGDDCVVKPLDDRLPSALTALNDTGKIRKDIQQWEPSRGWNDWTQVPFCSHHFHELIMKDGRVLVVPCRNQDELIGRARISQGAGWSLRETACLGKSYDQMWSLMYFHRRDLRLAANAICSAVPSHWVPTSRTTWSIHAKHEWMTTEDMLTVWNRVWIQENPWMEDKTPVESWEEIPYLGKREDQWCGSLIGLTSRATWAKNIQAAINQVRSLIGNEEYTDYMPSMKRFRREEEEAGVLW

Caspase-6 = biological target: T1, Caspase-6 (Homo sapiens, UniProt P55212); assay: inhibition of CASP6 peptide cleavage – biochemical, VEID-R110 fluorescence, cherry-pick, dose response (AID 720632)
T1 sequence (P55212 whole entry): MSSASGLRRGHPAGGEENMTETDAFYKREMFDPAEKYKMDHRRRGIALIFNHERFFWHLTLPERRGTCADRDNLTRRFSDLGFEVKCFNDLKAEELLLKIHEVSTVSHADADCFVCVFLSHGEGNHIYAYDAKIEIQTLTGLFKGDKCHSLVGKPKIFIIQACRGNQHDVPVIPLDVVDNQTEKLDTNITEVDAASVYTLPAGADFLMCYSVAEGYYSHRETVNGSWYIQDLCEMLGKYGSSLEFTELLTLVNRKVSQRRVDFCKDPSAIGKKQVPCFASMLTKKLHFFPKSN

[4] = biological target: T2, Histone-lysine N-methyltransferase NSD2 (Homo sapiens, UniProt O96028); type: biochemical
T2 sequence (O96028 whole entry): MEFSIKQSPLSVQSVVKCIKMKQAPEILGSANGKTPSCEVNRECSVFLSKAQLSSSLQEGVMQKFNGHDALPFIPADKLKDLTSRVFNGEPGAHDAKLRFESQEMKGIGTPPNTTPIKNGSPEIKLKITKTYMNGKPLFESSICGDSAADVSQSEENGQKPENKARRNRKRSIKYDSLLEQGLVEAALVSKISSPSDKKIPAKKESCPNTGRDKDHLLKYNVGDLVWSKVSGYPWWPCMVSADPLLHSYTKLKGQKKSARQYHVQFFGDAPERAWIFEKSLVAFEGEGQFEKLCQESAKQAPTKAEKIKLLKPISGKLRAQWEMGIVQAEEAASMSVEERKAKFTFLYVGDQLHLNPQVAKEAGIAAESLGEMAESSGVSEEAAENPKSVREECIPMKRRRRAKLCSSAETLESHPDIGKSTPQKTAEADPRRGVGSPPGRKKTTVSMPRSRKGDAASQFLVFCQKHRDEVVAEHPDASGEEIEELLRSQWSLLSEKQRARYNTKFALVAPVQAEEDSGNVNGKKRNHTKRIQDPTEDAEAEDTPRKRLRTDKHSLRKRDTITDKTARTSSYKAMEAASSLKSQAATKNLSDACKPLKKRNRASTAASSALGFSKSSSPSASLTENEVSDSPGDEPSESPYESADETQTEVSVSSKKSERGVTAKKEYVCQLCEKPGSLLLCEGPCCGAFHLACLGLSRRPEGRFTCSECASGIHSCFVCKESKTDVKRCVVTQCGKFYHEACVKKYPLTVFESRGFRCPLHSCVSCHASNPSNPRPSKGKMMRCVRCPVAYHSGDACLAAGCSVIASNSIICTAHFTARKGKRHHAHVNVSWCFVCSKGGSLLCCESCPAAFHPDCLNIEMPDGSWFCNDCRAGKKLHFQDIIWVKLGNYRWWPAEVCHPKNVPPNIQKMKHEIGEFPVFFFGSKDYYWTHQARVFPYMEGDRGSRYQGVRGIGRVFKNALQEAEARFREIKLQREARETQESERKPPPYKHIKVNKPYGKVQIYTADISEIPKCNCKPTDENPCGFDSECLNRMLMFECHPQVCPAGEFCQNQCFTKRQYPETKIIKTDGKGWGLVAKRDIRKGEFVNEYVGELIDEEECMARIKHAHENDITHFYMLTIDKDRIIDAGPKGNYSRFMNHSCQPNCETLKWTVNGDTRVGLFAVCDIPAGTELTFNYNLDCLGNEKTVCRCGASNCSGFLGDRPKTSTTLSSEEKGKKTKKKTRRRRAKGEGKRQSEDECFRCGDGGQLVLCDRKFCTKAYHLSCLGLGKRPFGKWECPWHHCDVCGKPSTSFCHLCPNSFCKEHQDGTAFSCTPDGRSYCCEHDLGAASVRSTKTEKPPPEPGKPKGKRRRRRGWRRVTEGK

Large T antigen = Large T antigen (Simian virus 40, UniProt P03070); type: functional, Betapolyomavirus macacae;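 note: Confirmatory-stage PubChem screen for compounds that inhibit SV40 T antigen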
Large T antigen, sequence (P03070 whole entry): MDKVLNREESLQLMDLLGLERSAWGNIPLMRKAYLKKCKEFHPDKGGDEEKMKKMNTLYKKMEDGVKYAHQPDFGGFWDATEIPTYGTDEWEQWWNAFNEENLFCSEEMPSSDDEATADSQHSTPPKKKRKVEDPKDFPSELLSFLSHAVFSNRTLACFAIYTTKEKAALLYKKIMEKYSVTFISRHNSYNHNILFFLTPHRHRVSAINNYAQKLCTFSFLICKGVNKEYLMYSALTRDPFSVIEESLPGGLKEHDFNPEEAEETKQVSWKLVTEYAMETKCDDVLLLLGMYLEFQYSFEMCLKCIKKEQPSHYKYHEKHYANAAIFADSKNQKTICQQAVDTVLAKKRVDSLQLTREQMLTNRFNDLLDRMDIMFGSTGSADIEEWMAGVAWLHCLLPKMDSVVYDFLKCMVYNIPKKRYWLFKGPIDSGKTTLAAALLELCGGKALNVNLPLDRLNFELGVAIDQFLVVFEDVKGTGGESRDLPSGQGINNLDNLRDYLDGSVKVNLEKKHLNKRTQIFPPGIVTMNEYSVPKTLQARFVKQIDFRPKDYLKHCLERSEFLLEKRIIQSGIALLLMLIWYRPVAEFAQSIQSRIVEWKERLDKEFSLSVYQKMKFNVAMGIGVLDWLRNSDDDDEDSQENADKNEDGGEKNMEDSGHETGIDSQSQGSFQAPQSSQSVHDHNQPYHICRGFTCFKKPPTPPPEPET

Protein Tat = biological target: T3, Protein Tat (Human immunodeficiency virus type 1 group M subtype B (isolate HXB2)(HIV-1), UniProt P04608); type: functional;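 note: tat binding to TAR RNA read out by fluorescence polarization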
T3 sequence (P04608 whole entry): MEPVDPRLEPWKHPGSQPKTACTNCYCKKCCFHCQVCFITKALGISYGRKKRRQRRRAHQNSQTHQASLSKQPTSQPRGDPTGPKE

[5] = viability loss in THP-1 monocytes – THP-1 cells, cytotoxicity control for Vif-APOBEC3G degradation inhibitor project, dose response (AID 1117359); type: functional; conditions: THP-1
[6] = OVCAR8 cell viability loss – plate reader, dry powder samples, PAX8 project, dose response (AID 743197); type: functional, cell-based; conditions: OVCAR-8
[7] = OVCAR-3 cell viability loss – plate reader, dry powder samples, PAX8 inhibitor project, dose response (AID 743044); type: functional, cell-based
[8] = fluconazole-exposed Candida albicans growth modulators – fluorescence, retest, confirmation (AID 2467); type: functional, cell-based
Streptokinase A = biological target: T4, Streptokinase A (Streptococcus pyogenes serotype M1, UniProt P10520); assay: viability-normalized secreted streptokinase activity reduction – plasminogen activation absorbance, OD405, dose response (AID 1914); type: functional, Streptococcus pyogenes M1 GAS;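 note: secreted streptokinase activity via plasminogen activation per viability signal from cell pellet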
T4 sequence (P10520 whole entry): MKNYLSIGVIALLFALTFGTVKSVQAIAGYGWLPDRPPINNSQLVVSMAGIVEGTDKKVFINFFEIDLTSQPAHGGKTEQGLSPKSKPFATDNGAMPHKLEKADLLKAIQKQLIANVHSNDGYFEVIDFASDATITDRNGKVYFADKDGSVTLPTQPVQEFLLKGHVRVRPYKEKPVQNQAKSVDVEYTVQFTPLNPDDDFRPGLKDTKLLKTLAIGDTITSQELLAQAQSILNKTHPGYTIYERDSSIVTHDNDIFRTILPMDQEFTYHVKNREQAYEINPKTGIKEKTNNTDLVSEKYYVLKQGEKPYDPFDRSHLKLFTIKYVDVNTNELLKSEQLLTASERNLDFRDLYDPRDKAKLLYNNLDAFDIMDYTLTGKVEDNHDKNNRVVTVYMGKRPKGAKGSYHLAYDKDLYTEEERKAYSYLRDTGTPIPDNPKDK

[9] = NIH-3T3 fibroblast cytotoxicity, dose response, cytotoxicity control, cell-based, fluorescence, Alamar Blue, secondary assay (AID 2327); type: functional;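 note: NIH-3T3 mouse fibroblasts cultured with fluconazole at 8 µg/mL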
Streptococcus = assay: GAS UMAA2166 growth inhibition – luminescence, BacTiterGlo, counter-screen for streptokinase expression inhibitor project, dose response (AID 1915); type: functional, organism-based;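 note: potency for reduction of bacterial viability or growth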
[10] = test system: Streptococcus sp. 'group A'; assay: Streptococcus pyogenes SK(-)GAS viability under kanamycin – luminescence, BacTiterGlo, confirmation, counter-screen for streptokinase expression inhibitor project, dose response (AID 1900); type: functional, organism-based
[11] = biological target: T5, Heat shock factor protein 1 (Mus musculus, UniProt P38532); assay: decrease of HSF1-responsive luciferase luminescence – cell-based, NIH3T3, dose retest, confirmation (AID 2382); type: functional;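 note: NIH3T3 fibroblasts with HSF1-driven luciferase reporter stressed by proteasome inhibitor MG132; luminescence from HSF1-driven luciferase expression after 8 hours of MG132 stress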
T5 sequence (P38532 whole entry): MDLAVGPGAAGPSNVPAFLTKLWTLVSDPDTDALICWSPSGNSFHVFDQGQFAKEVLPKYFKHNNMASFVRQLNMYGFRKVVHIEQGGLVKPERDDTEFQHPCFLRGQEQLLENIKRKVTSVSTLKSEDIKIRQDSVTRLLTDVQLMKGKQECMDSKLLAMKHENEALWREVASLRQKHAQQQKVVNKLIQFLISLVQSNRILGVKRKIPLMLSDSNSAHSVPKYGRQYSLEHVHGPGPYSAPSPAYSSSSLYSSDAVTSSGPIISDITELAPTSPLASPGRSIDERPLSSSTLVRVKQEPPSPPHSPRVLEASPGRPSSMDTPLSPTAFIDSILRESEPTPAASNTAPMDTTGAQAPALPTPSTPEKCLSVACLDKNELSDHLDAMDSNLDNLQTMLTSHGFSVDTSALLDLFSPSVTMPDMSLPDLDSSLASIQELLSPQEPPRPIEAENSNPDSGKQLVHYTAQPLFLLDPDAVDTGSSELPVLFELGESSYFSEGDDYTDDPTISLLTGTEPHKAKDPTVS

Paired box protein Pax-8, sequence (Q06710 whole entry): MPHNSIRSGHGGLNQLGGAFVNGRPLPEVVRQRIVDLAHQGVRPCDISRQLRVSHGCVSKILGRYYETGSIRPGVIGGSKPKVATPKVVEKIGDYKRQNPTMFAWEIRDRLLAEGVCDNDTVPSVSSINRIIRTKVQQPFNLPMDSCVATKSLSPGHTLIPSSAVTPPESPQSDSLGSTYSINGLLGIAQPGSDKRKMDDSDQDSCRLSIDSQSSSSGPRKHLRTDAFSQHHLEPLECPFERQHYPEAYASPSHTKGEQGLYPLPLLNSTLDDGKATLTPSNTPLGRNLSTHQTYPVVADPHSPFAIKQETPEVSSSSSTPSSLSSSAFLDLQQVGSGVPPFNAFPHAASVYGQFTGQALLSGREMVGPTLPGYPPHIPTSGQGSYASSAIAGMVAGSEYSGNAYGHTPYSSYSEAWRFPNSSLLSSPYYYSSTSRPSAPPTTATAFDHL

CN(C)N=Nc1[nH]cnc1C(N)=O
AC50 (Paired box protein Pax-8): 5.34 µM (active) | IC50 [1]: > 10 µM (inactive) | IC50 [2]: > 10 µM (inactive)

O=C1NC(=O)N(c2ccccc2)C(=O)/C1=C/c1ccc([N+](=O)[O-])s1
IC50 [3]: 76.7 µM (inactive) | IC50 (Genome polyprotein): 20.4 µM (active) | AC50 (Caspase-6): 33.3 µM (active) | AC50 [4]: > 20 µM (inactive) | IC50 (Large T antigen): 59.3 µM (active)

CC(C)(C)OC(=O)N(Cc1ccccc1)Cc1cccc(OCc2cccc(NC(=O)c3ccccc3)c2)c1
IC50 (Protein Tat): > 100 µM (active) | CC50 [5]: > 40 µM (active)

COc1ccccc1NC(=O)N1CCCCN2[C@H](C1)[C@@H](c1ccc(-c3cccc(C#N)c3)cc1)[C@@H]2CO
AC50 (Paired box protein Pax-8): 11.6 µM (active) | AC50 [6]: > 70 µM (inactive) | AC50 [7]: 23.2 µM (active)

CC(=O)[C@]1(O)Cc2c(O)c3c(c(O)c2[C@@H](O[C@H]2C[C@H](N)[C@H](O)[C@H](C)O2)C1)C(=O)c1ccccc1C3=O [IDARUBICIN HYDROCHLORIDE]
EC50 [8]: > 38 µM (not active) | IC50 [1]: 0.0111 µM (active) | EC50 (Streptokinase A): > 150 µM (not active) | EC50 [9]: 0.178 µM (inconclusive) | EC50 (Streptococcus): 2.6 µM (active) | EC50 [10]: 1.07 µM (active) | IC50 [2]: > 10 µM (inactive) | EC50 [11]: 3.01 µM (inconclusive)
